Earlier results in patent US20010028878A1, “In vitro maturation of human oocytes in one day” (priority 1998, published 2001).

System: human oocytes
Conditions: presence of insulin in the culture medium; recent research

insulin
effect on the chance for successful pregnancy: negative effect
